Laboratory results taken from the METLIN SMRT retention time set (Domingo-Almenara et al. 2019).

Assay: gradient 5% acetonitrile 3 min, to 50% in 2 min, to 85% in 15 min, held 3 min, 100 µL/min
Conditions: column: Zorbax Extend-C18 2.1 x 50 mm; eluents: water / acetonitrile, 0.1% formic acid
Method in brief: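 A Zorbax Extend-C18 column (2.1 × 50 mm, 1.8 μm) run at 100 μL/min with water and acetonitrile, both containing 0.1% formic acid, separated mixtures of ~100 pure standards. The HPLC was coupled to a quadrupole time-of-flight mass spectrometer operated in positive and negative ionization mode, with dead and dwell volumes of 40 μL and 900 μL. Each retention time was taken from a computationally picked adduct peak that was then manually inspected.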

Compound	RP-LC retention time [s]
CC1CCN(C(=O)Cn2c(=O)c3cccn3c3ccc(F)cc32)CC1	855
Cc1nnc(-c2ccc3ccn(CC(=O)N4CCCc5ccccc54)c3c2)o1	814
Cc1ccc(NC(=O)N2CCC(c3nc(C(=O)N(C)C)c(C)o3)CC2)cc1	705
Cc1c(C(=O)NCCCn2ncccc2=O)nnn1-c1nccs1	630
CC(=O)c1ccc(S(=O)(=O)N2CCc3nc[nH]c3C2)cc1	585
O=C(O)C1CC(=O)N(c2ccc3c(c2)OCO3)C1 (stereo not drawn)	619
CC(C)c1ccc(-c2noc(N3CCC(C(=O)N4CCOCC4)CC3)n2)cc1	955
CCOC(=O)C1C(=O)C=C(c2cccs2)CC1c1ccc(OCC)cc1 (stereo not drawn)	1060
COc1ccc(OC)c(NC(=O)N2CCC(C)(C(=O)NCc3ccc4c(c3)OCO4)CC2)c1	806
COc1cc(NC(=O)Cn2c(=O)nc(N3CCCC(C)C3)c3ccccc32)cc(OC)c1 (stereo not drawn)	838
O=C(CSc1ccc(Cl)cc1)Nc1nnc(-c2cccc([N+](=O)[O-])c2)s1	968
CN(CC#N)C(=O)c1nn(C)c2c1COc1ccccc1-2	834
Cc1cc(F)ccc1N1C(=O)CN(S(C)(=O)=O)CC1(C)C(=O)NCc1ccccc1 (stereo not drawn)	804
CN1CCN(C(=O)Cn2c(-c3cccs3)cc3ccccc32)CC1	671
COc1ccc(-c2noc(C3CC(=O)N(c4cccc(Cl)c4)C3)n2)c(OC)c1 (stereo not drawn)	878
Cc1cccc(NC(=O)Cn2nc(N3CCCC3)c3ccccc3c2=O)c1C	927
CCCc1nnsc1C(=O)NCCCC(=O)Nc1cccc2cccnc12	791
COc1ccc(CNC(=O)N2CCC(N3CCN(Cc4ccccc4)C(=O)C3=O)CC2)cc1	702
COc1ccc(NC(=O)C2CCCN(Cc3nc(-c4cccs4)no3)C2)cc1Cl (stereo not drawn)	728
CCC(=O)N1c2ccc(S(=O)(=O)N3CCCCC3)cc2CC1C(=O)NCCCc1ccccc1 (stereo not drawn)	977
O=C(Nc1ccc(CN2CCN(c3ccccn3)CC2)cc1)c1ccccc1C(F)(F)F	564
COCCNC(=O)C(C)n1c(=O)c(C(F)(F)F)nc2cc(C)c(C)cc21 (stereo not drawn)	986

Compound	RP-LC retention time [s]
COCCc1noc(C2CN(C(=O)C3(c4ccc(OC)cc4)CC3)C2)n1	738
O=S(=O)(c1ccc(-c2cc(C(F)(F)F)on2)o1)N1CCN(c2ncccn2)CC1	1060
Nc1nc(-c2ccccc2)nn1C(=O)c1ccccc1	904
COc1cccc(CNC(=O)N2CCN(C3=CC4=NC(C)CN4C=N3)CC2)c1 (stereo not drawn)	649
CCN(CC)CCCNC(=O)C1CCCN(c2nnc(C)c3c(C)n(-c4ccccc4)nc23)C1 (stereo not drawn)	556
COc1ccc(N2CCN(C(=O)c3c(C)oc4nc(C)nc(N5CCCC5)c34)CC2)cc1	694
O=C(O)c1ccc2cc(-c3ccc(O)c(C4C5CC6CC(C5)CC4C6)c3)ccc2c1 (stereo not drawn)	1240
Cn1cccc1C(=O)C(=O)Nc1ccc(Cl)cc1F	1080
O=C(COc1ccccc1)Nc1ccc(-c2nc(-c3ccc(Cl)cc3)no2)cc1	1280
CCCc1nc2cccnc2n1C1CCN(C(=O)c2ccc(C)c(N3CCCC3=O)c2)C1 (stereo not drawn)	580
COc1ccccc1Nc1c(-c2ccc(OC)c(OC)c2)nc2cnccn12	806
O=C(NCCn1c(-c2ccccc2)nc2cccnc21)NCc1ccc(F)cc1	684
Cc1ccc(NC(=O)Nc2nccn(-c3ccc(Br)cc3)c2=O)cc1F	1080
Cc1cc(C)c(NC(=O)CSc2nccc(N3CCN(c4cc(C)ccc4C)CC3)n2)c(C)c1	1080
COc1ccccc1C(=O)N1CCC2(C1)C(=O)Nc1ccccc12 (stereo not drawn)	672
CCCn1cc(CCNS(=O)(=O)c2ccccc2F)c2cccnc21	820
Cc1ccc(-c2noc(Cn3c(=O)n(-c4cccc(C)c4)c(=O)c4sccc43)n2)cc1	1070
COc1ccc(OC)c(NC(=O)CSc2cc(N3CCN(c4ccccc4OC)CC3)ncn2)c1	791
CCOc1ccc2ncc(C(=O)c3ccc(OC)cc3)c(N3CCN(CC)CC3)c2c1	600
O=C1[C@H]2CN(Cc3ccncc3)C[C@H]2C(=O)N1Cc1ccc2c(c1)OCO2	605
COc1cccc(NC(=O)C2CCN(S(=O)(=O)c3c(C)nn(-c4ccccc4)c3C)CC2)c1	940
Cc1[nH]c(C(=O)N2CCC(CC(=O)NCc3cccc(Cl)c3)CC2)c(C)c1C(=O)OC(C)C	868

Compound	RP-LC retention time [s]
c1ccc(-c2nnc(-c3ccccc3)nn2)cc1	1220
Cc1cnc(C2CC2)n1CCNS(=O)(=O)c1ccccc1F	587
CCCNC(=O)Cn1cc(C(=O)Nc2ccc(C)c(C)c2)c(=O)c2ccc(C)nc21	966
COc1ccc2c(c1)C1(CCN(S(=O)(=O)c3ccc4c(c3)oc(=O)n4C)C1)C(=O)N2 (stereo not drawn)	746
CC(C)n1cnc2cc(CNC(=O)c3cccc(C#N)c3)ccc21	596
CS(=O)(=O)N1CCCC1C(=O)Nc1cccc(F)c1 (stereo not drawn)	730
CSc1ccc(-c2noc(Cn3ncn4nc(-c5ccc(C)cc5C)cc4c3=O)n2)cc1	1270
CC1=C(c2ccc(C(C)C)cc2)S(=O)(=O)N=C1N1CCC(C(=O)NCC2CCCO2)CC1 (stereo not drawn)	820
O=C(Cc1cccs1)N1CCCC1c1cccc(F)c1 (stereo not drawn)	817
CCc1ccc(NC(=O)N2CCCC(C)(C(=O)NCc3cccc(OC)c3)C2)cc1 (stereo not drawn)	968
COc1ccc(Nc2nccc(C3CCCN(C(=O)C(C)(C)C)C3)n2)cc1 (stereo not drawn)	892
Cc1nnc(-c2ccc3ccn(CC(=O)N4CCN(c5ccccn5)CC4)c3c2)o1	598
COc1ccc2c(c1)CCc1sc(NC(=O)c3ccc(C)cc3)nc1-2	1150
CC[C@H](C)[C@H](NC(=O)N1C[C@@H]2C[C@@H](C1)c1cccc(=O)n1C2)C(=O)O	598
COc1ccc(CCc2nc3nccc(-c4ccc(OC)cc4F)n3n2)cc1	941
CCC(c1cccs1)N1C(=O)[C@H]2CN(S(=O)(=O)c3ccc(F)cc3F)C[C@H]2C1=O (stereo partly drawn)	1000
COc1ccccc1NS(=O)(=O)c1cc2c(s1)CCN(C(=O)C1CCC1)C2	890
O=C(NCc1ccc(F)cc1Cl)c1cn(-c2cc(N3CCOCC3)ncn2)cn1	840
CCOc1cc(CNc2ccc3[nH]c(=O)[nH]c3c2)cc(Br)c1OCC	717
CCCC(NC(=O)c1cc(OC)cc(OC)c1)C(=O)Nc1nc2ccccc2[nH]1 (stereo not drawn)	719
Cn1c(SCC(=O)Nc2ncccn2)nnc1-c1ccc2c(c1)OCO2	579
Cc1ccccc1C(=O)NCCc1c[nH]c2ccc(Cl)cc12	889

Compound	RP-LC retention time [s]
Fc1ccc(C2CCNCC2COc2ccc3c(c2)OCO3)cc1 (stereo not drawn)	778
COc1ccc2[nH]cc(CCNC(=O)CCC(=O)N3Cc4cccn4-c4ccccc43)c2c1	850
Cc1ccnc(NS(=O)(=O)c2ccc(N)cc2)n1	652
COc1cc([N+](=O)[O-])ccc1NC(=O)CCS(=O)(=O)c1ccc(Cl)cc1	854
CNC(=O)c1cccn1Cc1ccc(F)cc1	791
O=C(CCn1cnc2c(-c3ccccc3)noc2c1=O)NCCCN1CCc2ccccc2C1	679
Cc1ccc2c(=O)c(C(=O)N3CCCC3)cn(CC(=O)Nc3ccccc3Cl)c2n1	704
O=C(c1nnc(-c2ccc(S(=O)(=O)N3CCCC3)cc2)o1)N1CCc2ccccc2C1	980
COc1cc(NC(=O)CN2C(=O)C(C)(C)c3cc(C)ccc32)cc(OC)c1OC	823
O=C(NC1CCCC1)c1ccc2c(c1)nc1n2CCN(C2CCCCC2)C1=O	763
COc1ccc(-c2noc(CSc3nccn3-c3ccc(C)cc3)n2)cc1	926
O=C(NC(Cc1ccccc1)c1nnc(N2CCCCC2)o1)c1ccco1 (stereo not drawn)	775
Cc1cc(C)nc(N2CCN(c3nc(C)cc(C)c3C#N)CC2)n1	990
Cn1c(C(=O)NCc2ccccc2Cl)cc2ccncc21	643
CC(C)=CCC/C(C)=C/CNCCNC1C2CC3CC(C2)CC1C3 (stereo not drawn)	624
CC(C)C(=O)Nc1ccc2nc(N3CCN(c4cccc(Cl)c4)CC3)cc(C(=O)O)c2c1	883
CCOC(=O)c1[nH]c(C)c(CCC(=O)Nc2cc(OC)cc(OC)c2)c1C	880
CCOc1ccc(NC(=O)Cn2nc3c(Oc4ccccc4C)nccn3c2=O)cc1	870
COc1ccc2c(c1)CCc1sc(NC(=O)c3cc(Cl)ccc3OC)nc1-2	1270
Fc1ccc(-c2noc(Cc3nnc(-c4cc(F)cc(F)c4)o3)n2)cc1	1030
Cc1ccc(NC(=O)c2cnn3c2CCCC3)c(C)c1	762
CCNC(=O)N1CCc2c([nH]c3ccc(C)cc23)C12C(=O)N(C)c1ccccc12 (stereo not drawn)	798
